Earlier results in patent publication US7662581B1, “Eg5 co-crystals” (Novartis Vaccines and Diagnostics, Inc., priority 2003, dated 2010).

Tests used:
[1] = tested on: HsEg5; settings: protein level
[2] = tested on: DAN-G pancreatic carcinoma cells

## CC1=C(/C=C/C(C)=C/C=C/C(C)=C/C(=O)O)C(C)(C)CCC1 [ATRA, all trans-retinoic acid]
[1]
  HsEg5 expression: reduces HsEg5 expression on protein level
[2]
  growth inhibition: significant growth inhibition
